{"source": "paper PMC6600523", "about": "“Interference with Amyloid-β Nucleation by Transient Ligand Interaction” (Molecules, 2019)", "key": {"Aβ42 [1]": {"biological_target": "T1, Aβ42 (Homo sapiens, UniProt P05067)", "T1 construct": "purchased Bachem H-1368.1000", "T1 sequence (P05067 672-713 limits assumed)": "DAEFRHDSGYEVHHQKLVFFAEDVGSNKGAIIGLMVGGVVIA", "assay": "Turbidity assay of Aβ42 samples with D3", "format": "physicochemical", "conditions": "40 μM Aβ42 with 4, 20, 40 and 80 μM D3; 20 mM sodium phosphate, 50 mM NaCl pH 7.4; ambient temperature; directly and after 2 h; UV-Vis", "description": "The turbidity assay was carried out by measuring the spectra of all samples from 450 nm to 210 nm in a 1 cm quartz cuvette using a V-650 UV-Vis spectrophotometer (Jasco, Tokyo, Japan). The measurements were performed directly after preparing all samples, and repeated after 2 h of incubation at ambient temperature."}, "[2]": {"biological_target": "n-terminally biotinylated Aβ42 monomers", "conditions": "read-out: KD for D3 and Aβ42 by SPR; n-terminally biotinylated Aβ42 monomers fixed on sensor chips via biotin-streptavidin; cited from earlier work"}, "Aβ42 [3]": {"biological_target": "T1, Aβ42", "assay": "Circular dichroism spectroscopy, secondary structure transition of Aβ42", "format": "biochemical", "conditions": "20 mM sodium phosphate, 50 mM NaF pH 7.4, 20 °C", "description": "NaF was used to substitute NaCl in this measurement to maintain the ionic strength of the buffer, so as to avoid the strong absorbance of NaCl in the far-UV area. […] All samples were prepared on ice before being transferred to 1 mm path length quartz cuvettes. The final volume of each sample was 200 μL. Circular dichroism (CD) spectra were recorded from 260 nm to 190 nm using a J-815 spectropolarimeter (Jasco, Tokyo, Japan). All measurements were carried out with a step size of 0.5 nm and a bandwidth of 2 nm. The scanning speed was set to 100 nm/min and 10 scans were accumulated for each sample. […] Samples were maintained at 20 °C within the measurement duration of 120 h, and were prepared in triplicate. CD spectra for all samples were deconvoluted using the online server Dichroweb by applying the CDSSTR algorithm and reference dataset Set 7 [87]."}, "[4]": {"assay": "Sedimentation velocity AUC with fluorescence detection, labeled peptide alone", "format": "physicochemical", "conditions": "sedimentation velocity AUC-FDS of FITC-D3 alone, 0.2 μM, 20 mM sodium phosphate, 50 mM NaCl pH 7.4, 0.0004% PEI", "description": "All measurements were performed using an XL-A analytical ultracentrifuge (Beckman coulter, Brea, CA, USA). […] All samples were prepared in 20 mM sodium phosphate, 50 mM NaCl (pH 7.4) containing 0.0004% PEI (w/v). Samples were then loaded into 3-mm double-sector titanium cells (Nanolytics, Potsdam, Germany), with each sector containing a 100 μL sample. The detection system uses an excitation laser at 488 nm and an emission cut-off filter at 505 nm to collect fluorescence signals. The amplification factor was adjusted to the same value for all samples for comparability. […] Data was acquired at 20 nm radial resolution. After thorough thermal equilibration the centrifugation was carried out at 60,000 rpm (289,000× g) at 20 °C for 15 h. Carrier proteins, such as albumin and kappa casein, are usually recommended to minimize unspecific surface adsorption for fluorescence-based AUC [56]. All sedimentation profiles were subjected to the software package SEDFIT (version 15.01b) for data evaluation. The data was analyzed with the continuous distribution c(s) Lamm equation model to obtain the sedimentation coefficient distributions. Fitting parameters (Table S1) including the buffer density and viscosity were determined using Sednterp (version 20130813BETA). […]"}, "Aβ42 [5]": {"biological_target": "T1, Aβ42", "assay": "Absorbance-based AUC, size distribution of Aβ42 after 24 h", "format": "biochemical", "conditions": "20 μM Aβ42 with 2 μM D3, 24 h, 20 mM sodium phosphate, 50 mM NaCl pH 7.4, 20 °C; absorbance AUC at 210 nm, 45,000 rpm; compared with Aβ42 alone", "description": "In brief, 380 μL samples were loaded into 12-mm double-sector aluminum cellsm and were thermally equilibrated prior to the final centrifugation. The centrifugation was performed at 45,000 rpm, 20 °C for 15.5 h. Sedimentation profiles were recorded at 210 nm, with a radial resolution of 20 μm.\nAll sedimentation profiles were subjected to the software package SEDFIT (version 15.01b) for data evaluation. The data was analyzed with the continuous distribution c(s) Lamm equation model to obtain the sedimentation coefficient distributions. Fitting parameters (Table S1) including the buffer density and viscosity were determined using Sednterp (version 20130813BETA). […] Final graphs were generated using GUSSI (version 1.2.1) and sedimentation coefficients were standardized to s-values in pure water at 20 °C (s20,w)."}}, "note": "Where a SMILES comes first, the peptide text is derived from it. [ ]: non-standard residue; d: D form.", "data": [{"compound": "CC(C)C[C@@H](NC(=O)[C@@H](CCCNC(=N)N)NC(=O)[C@H](NC(=O)[C@@H](CCCNC(=N)N)NC(=O)[C@H]1CCCN1C(=O)[C@H](N)CCCNC(=N)N)[C@H](C)O)C(=O)N[C@H](Cc1c[nH]cn1)C(=O)N[C@@H](C(=O)N[C@H](Cc1c[nH]cn1)C(=O)N[C@H](CCCNC(=N)N)C(=O)N[C@H](CC(N)=O)C(=O)N[C@H](CCCNC(=N)N)C(N)=O)[C@H](C)O", "note": "[D3] (H-[dR][dP][dR][dT][dR][dL][dH][dT][dH][dR][dN][dR]-NH2)", "values": [{"measurement": "Turbidity (absorbance at 405 nm) of Aβ42 samples on addition of D3", "setting": "Aβ42 [1]", "value": "promotes the rapid formation of co-precipitates in a concentration-dependent manner"}, {"measurement": "Kd", "setting": "[2]", "value": "~4", "unit": "µM"}, {"measurement": "Effect of delayed D3 addition on the structural transformation of Aβ42", "setting": "Aβ42 [3]; 4 μM D3 added into 40 μM Aβ42 after 33 h preincubation", "value": "visibly delayed the structural transformation of Aβ42"}, {"measurement": "Ellipticity at 217 nm of the Aβ42 sample with D3 relative to Aβ42 alone", "setting": "Aβ42 [3]; 40 μM Aβ42 with 4 μM D3, at 120 h, triplicate", "value": "about 72%"}, {"measurement": "Self-assembly or aggregation of D3 in solution", "setting": "[4]", "value": "does not form any self-assemblies or aggregates"}, {"measurement": "MST KD compared with SPR KD", "value": 10, "unit": "fold"}, {"measurement": "Size distribution of Aβ42 samples with D3 after 24 h", "setting": "Aβ42 [5]", "value": "no such large aggregates"}]}]}
